Entries after “also recorded” stand apart in the source; their conditions may differ. Where two headings read alike, the source gives them in different places.
Key:
[1] = tested on: KBM7 cells; assay type: cell-based; settings: human, 250 mM
Description: (B) BrdU incorporation rate was determined in KBM7 cells incubated with osmocytosis buffer with NDSB-201 or GABA at different time points. Untreated cells were considering as 100% of BrdU incorporation.
Next we optimized the transduction media to allow the transduction of recombinant Cas9. […] For this reason we developed a “Cas9-adapted transduction protocol” (the “fourth protocol”) with a final osmolality of 1250 mOsmol/Kg and a concentration of 250 mM of NDSB-201 (transduction compound #01) or other transduction compounds selected from the FIGS. 7A-7D. We expected that higher osmolalities and NDSBs will induce faster protein transduction but also could possibly increase the cellular toxicity. To characterize this new transduction conditions we measured BrdU incorporation upon high osmolarity (1250 mOsm/Kg) transduction at different short time points, in KBM7 cells.

[2] = tested on: murine embryonic fibroblasts (MEFs); test: β-Lactamase protein transduction assay (CCF2-AM), protocol 3/700; settings: for β-lactamase transduction activity when combined with reference compound #01 (reference set at 100%): equimolar with NDSB201 (#01), 12.5 mM each, total 25 mM; for protein transduction activity (in words): 25 mM compound, compared with NDSB201 (#01) or parent compound
Excerpt: To further characterize the protein transduction process we analyzed the effect of time, osmolality, transduction compound concentration and protein concentration on the transduction process. To this end, we set up a β-Lactamase protein transduction assay and measured intracellular β-Lactamase activity using CCF2-AM, an intracellular fluorescent β-Lactamase substrate that changes emission wavelength when cleaved by the enzyme (FIG. 3A). […] While we used the immortalized COS7 cell line in our initial studies, we wanted to know if the compound-mediated protein transduction would also allow the transduction of protein into primary cells. We therefore transduced murine embryonic fibroblasts (MEFs) with β-Lactamase (1 μM final concentration), using NaCl-adjusted hypertonic media (700 mOsm/Kg) and 25 mM NDSB201. β-Lactamase activity was set at 1 at the start of the experiment and relative intracellular β-Lactamase activity was measured as a function of time (FIG. 3B, bars). As a control, β-Lactamase transduction was measured in isotonic media in the presence of 25 mM NSDB201 (FIG. 3B, open circles).
β-lactamase transduction was performed using the 3/700 protocol above in murine embryonic fibroblasts (MEFs). A black, clear-bottom 96 well-plate was coated with 0.15 mg/ml of Poly-D-Lysine for 1 h at room temperature. 12,000 MEFs cells were seeded per well in MEF media without antibiotics. Next day, cells were transduced using the transduction protocol 3/700 as describe above. […] Na- or Rb-salt was added to adjust the final tonicity to 700 mOsm/Kg. […] After 3 hrs., the transduction media was replaced by fresh MEF media for 30 min. Subsequently, cells were washed once with phenol-red-free DMEM. β-lactamase activity was measured using the CCF2-AM kit following the manufacturer's instructions. In brief, 120 μl of CCF2-AM loading media was added per well and cells were incubated for 1 h at room temperature. Cells were washed two times with DMEM phenol-red free and incubated for an additional 30-60 min. Fluorescence emission was measured at […] and 510 nm following manufacturer's instructions. All tests were done in triplicate.

[3] = tested on: KBM7 cells; test: CRE recombinase reporter in KBM7 cells, Cas9-adapted transduction buffer; assay type: cell-based, human; settings: 1250 mOsmol/Kg, 250 mM GABA
Description: (C) Top panel. Schematic depiction of the CRE recombinase reporter. […] Untransduced cells express Red fluorescent protein. […] Bottom panel. KBM7 cells transduced with CRE protein with osmocytosis media at 1250 mOsmol/Kg with 250 mM GABA (compound #20) during 60 minutes. Upper panels represent fluorescent pictures in green and red channel. Bottom panels represent FACS plots showing in x axes green fluorescence and in y axes red fluorescence or frequency of events. Percentages of events are depicted in the corresponding area.
To further test the duration of the transduction with the modified transduction buffer, we performed a Cre recombinase protein transduction at 1250 mOsmol/Kg and 250 mM GABA at different time points and measured the percentage of cells with successful cre-mediated reporter activation as well as BrdU incorporation as a measure of cell proliferation and survival. Under these conditions, the optimal transduction time based on cell survival and Cre transduction was around 60 minutes. At those time points, one round of Cre protein transduction gave an 80% of GFP positive KBM7 cells. And two subsequent rounds of Cre protein transduction yielded 94% positive KBM7 (FIG. 19C). A second round of protein transduction didn't affect cell survival rate.

[4] = tested on: GFP-expressing murine embryonic fibroblasts (MEFs); test: Macropinocytosis mediated uptake of TMR-dextran and BSA, confocal microscopy; assay type: cell-based; settings: 100 μM EIPA 30 min before and during transduction
Description: To assess if the transduction buffer would permit the simultaneous transduction of proteins and large molecules, we analyzed macropinocytosis mediated uptake of TMR-dextran (red) and fluorescently labeled BSA protein (cyan) by GFP-expressing murine embryonic fibroblasts (MEFs). In brief, MEFs expressing eGFP protein (green) were incubated with 5 μg/ml of high molecular weight TMR-Dextran (red) and 1 μg of BSA-Alexa-647 (far-red) in 1× transduction media (protocol 700/3) for 30 min. Subsequently, cells were washed twice in 1× transduction buffer. Finally, cells were maintained in 1× transduction buffer and immediately analyzed by confocal microscopy. Dextran and BSA uptake was inhibited by incubating cells with 100 μM Ethylisopropylamiloride (EIPA) 30 min before and during transduction procedure.

[5] = tested on: MEFs cells expressing GAL3-GFP protein; test: GAL3-GFP macropinosome vesicle leakage reporter assay; settings: 700/3 conditions
Description: Schematic representation of the GAL3-GFP reporter assay. Upon initiation of transduction, extracellularly applied protein is taken up into macropinosomes (grey vesicles). […] At the same time, the compromised macropinosome membrane now allows entry of cytosolic GAL3-GFP protein, which binds to—and accumulates at the intra-macropinosome carbohydrates resulting in a bright fluorescent signal (white vesicles). […] GAL3-GFP cells were incubated with transduction media at 700 mOsmol/Kg with or without the macropinocytosis inhibitor EIPA. Untreated cells were included as negative control.
For transduction to occur, proteins that have been taken by macropinocytosis have to be released into the cytosol. […] To test the efficacy of potential transduction compound candidates, we set up an assay to monitor macropinosome vesicle permeation. […] We set up a reporter system in which Galectin-3 protein is fused to GFP (GAL3-GFP). Cytosolic GAL3-GFP protein relocalises to the interior of permeabilized macropinosomes, whereby a multimer complex is formed with intense green fluorescent emission. MEFs cells expressing GAL3-GFP protein were transduced using the 700/3 conditions.

[6] = tested on: COS7 cells; test: Oct4 luciferase reporter (6×OCT4-TK-Luc) protein transduction assay; assay type: cell-based
[7] = tested on: murine embryonic fibroblasts (MEFs); test: BrdU incorporation (cell proliferation) after transduction of MEFs; settings: BrdU 24 hrs after start of transduction, 25 mM compound, 700 mOsm/Kg
Description: Open circles indicate relative BrdU incorporation by the transduced cells. BrdU incorporation of untransduced cells was set at 100% and BrdU incorporation of mitomycin C-treated cells was set at 0%.
Cell proliferation was determined using the Cell Proliferation Elisa kit, Brdu (Roche) following manufacturer's instructions (Roche).

[8] = tested on: murine embryonic stem cells (mESCs); test: CRE recombinase Lox-Stop-Lox-eGFP reporter, flow cytometry
Description: To explore protein transduction of murine embryonic stem cells in more detail, we used a transgenic mESC line in which a CRE-recombinase inducible reporter was stably integrated in the ColA1 locus^2. […] Next we tested whether protein transduction affected ESC proliferation. After two rounds of CRE-protein transduction, the doubly transduced cells in FIG. 8B were trypsinized, seeded onto MEFs feeders, and cell proliferation was monitored by cell counting. Untransduced cells were used as a control. […] Next we explored the expression of key pluripotency factors in the double transduced mESCs by qRTPCR. […] To test the pluripotency of the transduced mESCs, double-transduced GFP+ ESCs from the experiment in FIG. 8B were injected into host blastocyst embryos and transplanted into pseudopregnant foster mice.

[9] = tested on: human induced pluripotent stem cells (iPSCs); test: CRE recombinase dsRed-to-eGFP reporter, flow cytometry
[10] = tested on: murine neurospheres; test: CRE reporter in murine neurospheres; assay type: cell-based; settings: CRE protein transduction, protocol 12/500
Excerpt: (§1) A similar strategy of CRE-recombinase mediated red-to-green reporter shift as described above, was utilized to assess the transduction of murine and human neurons, glia and neural stem cells. FIG. 10A depicts a schematic representation of the assay. […] Since the fluorescent reporter construct was introduced into the iPSC-derived glial cells and neurons using lentiviral infection, cells likely incorporated multiple copies of this reporter.
Neurospheres were transferred to a 96 well plate with 80 μl of the neuronal stem cells media. Right after, 20 μl of CRE in 5× Transduction buffer was added to cell and mixed carefully.

[11] = tested on: murine ESCs; test: ESC proliferation by cell counting after CRE transduction; assay type: cell-based; settings: with or without Tat-HA2 fusion peptide
Excerpt: Top & bottom graph. After 2 days, transduced (white circle) or untransduced (grey bars) cells were counted every day to make cell proliferation curves.
Untransduced cells were used as a control.

[12] = tested on: human iPSC-derived glial cells and neurons; test: CRE reporter in human iPSC-derived glial cells and neurons; assay type: cell-based; settings: 5 μM CRE
Excerpt: as §1

[13] = 3 hours, 25 mM NDSB201, tonicity adjusted with NaCl

NCCCC(=O)O [Compound #20, gamma-aminobutyric acid]
cell survival (BrdU incorporation) in KBM7 [1]: much better survival than NDSB-201 | β-lactamase transduction activity when combined with reference compound #01 (reference set at 100%) ([2]; 3 hours, 700 mOsm/Kg): largely unchanged | optimal transduction time based on cell survival and Cre transduction [3]: around 60 minutes

CCN(c1nc(N)c(C(=O)N=C(N)N)nc1Cl)C(C)C [EIPA, 5-(N-ethyl N-isopropyl)-amiloride, reference compound]
effect on Dextran and BSA transduction [4]: inhibited | effect on protein transduction in the presence of FGF and PDGF ([2]; 700 mOsm/Kg, 25 mM NDSB201): completely blocked protein transduction | effect of endocytic pathway inhibitor on protein transduction ([2]; 3 hours, 1 μM β-lactamase, 700 mOsm/Kg NaCl, 25 mM NDSB201): strongly inhibited; also recorded: completely inhibits protein transduction | Gal3-GFP localisation to macropinocytic vesicles (vesicle leakage) [5]: did not relocalize to vesicles

[Cl-].[Na+] [NaCl, Sodium chloride]
effect of omitting buffer component on Oct4-reporter activation by Oct4-VP16 protein [6]: abrogated Oct4-reporter activation | osmolality beyond which cell loss was observed [2, 13]: > 850 mOsm/Kg | osmolality of maximal β-Lactamase transduction [2, 13]: 700-800 mOsm/Kg | protein transducing activity of hypertonicity-inducing compound ([2]; 3 hours, tonicity adjusted to 700 mOsm/Kg with the compound, 25 mM NDSB201 and osmoprotectants): the highest activity

O=S(=O)([O-])CCC[n+]1ccccc1 [compound 1, 3-(1-pyridino)-1-propanesulfonate, reference compound]
effect of omitting buffer component on Oct4-reporter activation by Oct4-VP16 protein ([6]; COS7 cells): abrogated Oct4-reporter activation | time after initiation of transduction at which intracellular β-Lactamase activity could be observed ([2]; 1 μM β-Lactamase, 700 mOsm/Kg NaCl, 25 mM NDSB201): 2.5 h | effect of higher compound concentrations under hyperosmotic conditions ([2]; 700 mOsm/kg, above 10-25 mM): cell loss | protein transduction activity (in words) ([2]; 3 hours, 700 mOsm/Kg): most efficient | transduction compound concentration at peak β-Lactamase transduction ([2]; 3 hours, 700 mOsm/kg NaCl, 1 μM β-Lactamase): 10 to 25 mM | Gal3-GFP localisation to macropinocytic vesicles (vesicle leakage) [5]: bright vesicle formation

CCC(C)(C)CCCS(=O)(=O)O [compound 07]
protein transduction activity (in words) ([2]; 3 hours, 700 mOsm/Kg): greatly diminished transduction activity | effect on cell proliferation / viability (BrdU incorporation, in words) [7]: severe cell cycle inhibition

NCC(=O)O [compound 18, Glycine]
protein transduction activity (in words) ([2]; 3 hours, 700 mOsm/Kg): little to no transduction activity | β-lactamase transduction activity when combined with reference compound #01 (reference set at 100%) ([2]; 3 hours, 700 mOsm/Kg): approximately 15% | Gal3-GFP localisation to macropinocytic vesicles (vesicle leakage) [5]: did not localize into the macropinocytic vesicles

CCCCC(=O)O [compound 23, pentanoic acid]
protein transduction activity (in words) ([2]; 3 hours, 700 mOsm/Kg): greatly diminished transduction activity | effect on cell proliferation / viability (BrdU incorporation, in words) [7]: severe cell cycle inhibition

CCCCN [compound 24, n-butylamine]
protein transduction activity (in words) ([2]; 3 hours, 700 mOsm/Kg): greatly diminished transduction activity | effect on cell proliferation / viability (BrdU incorporation, in words) [7]: severe cell cycle inhibition

B1: CRE protein: recombinant CRE recombinase protein (protein, UniProt P06956 1-343, looked up)
Recombinase cre: MSNLLTVHQNLPALPVDATSDEVRKNLMDMFRDRQAFSEHTWKMLLSVCRSWAAWCKLNNRKWFPAEPEDVRDYLLYLQARGLAVKTIQQHLGQLNMLHRRSGLPRPSDSNAVSLVMRRIRKENVDAGERAKQALAFERTDFDQVRSLMENSDRCQDIRNLAFLGIAYNTLLRIAEIARIRVKDISRTDGGRMLIHIGRTKTLVSTAGVEKALSLGVTKLVERWISVSGVADDPNNYLFCRVRKNGVAAPSATSQLSTRALEGIFEATHRLIYGAKDDSGQRYLAWSGHSARVGAARDMARAGVSIPEIMQAGGWTNVNIVMNYIRNLDSETGAMVRLLEDGD
GFP+ ESCs ([8]; 5 μM CRE, two sequential rounds, 12 hrs each at 500 mOsm/Kg with glycerol and glycine): 79% | GFP-positive mESCs ([8]; Okada method (hypertonic/hypotonic), 5 μM CRE-recombinase protein): 6% | cells shifted to eGFP expression ([9]; 5 μM CRE protein, 12 hours at 500 mOsm/Kg, single transduction): 64% | eGFP cells ([9]; double CRE protein transduction, without Tat-HA2 fusion peptide): 78% | GFP positive KBM7 cells ([3]; one round, around 60 minutes): 80% | positive KBM7 ([3]; two subsequent rounds): 94% | eGFP reporter activation [10]: efficient activation of the eGFP reporter | ESC proliferation after two rounds of CRE protein transduction [11]: did not affect ESC proliferation | eGFP reporter activation [12]: efficient activation of the eGFP reporter
